# Assay: not given
row,logP,SMILES
1,2.58,COC(=O)c1ccc2[nH]ccc2c1
2,1.35,CC(=O)C=Cc1ccco1
3,1.56,O=[N+]([O-])C=Cc1ccco1
4,2.18,Brc1ccoc1
5,2.38,N#Cc1ccc2cc[nH]c2c1
6,2.01,CC(=O)Oc1c[nH]c2ccccc12
7,0.51,O=Cc1ccoc1
8,1.78,CCOC(=O)c1ccoc1
9,2.92,O=[N+]([O-])c1ccc2sccc2c1
10,2.46,N#Cc1cccc2[nH]ccc12
11,2.54,Clc1cccs1
12,3.44,O=C(c1c[nH]c2ccccc12)C(F)(F)F
13,2.63,O=[N+]([O-])c1cccc2cc[nH]c12
14,0.41,CN(C)C(=O)c1ccco1

# Continued, compound first:
row,SMILES,logP
1,CCOC(=O)c1cc2ccccc2[nH]1,3.18
2,O=[N+]([O-])/C=C/c1cccs1,1.96
3,Clc1cccc2cc[nH]c12,3.25
4,Cc1cccc2cc[nH]c12,2.56
5,NCc1ccco1,0.37
6,COc1ccco1,1.44
7,O=CNc1ccc2[nH]ccc2c1,1.07
8,CCOc1ccc2cc[nH]c2c1,2.53
9,N#Cc1ccc2[nH]ccc2c1,2.36
10,NC(=O)c1cccc2[nH]ccc12,0.66
11,NC(=O)c1ccc2[nH]ccc2c1,0.87
12,CCOC(=O)c1c[nH]c2ccccc12,3.04

# Assay: method code SF, from DOI: 10.1002/qsar.19890080404
row,logP,SMILES
1,2.06,CC(=O)c1c[nH]c2ccccc12
2,0.38,CS(=O)(=O)c1cccs1
3,1.34,NC(=S)c1cccs1
4,2.05,CCOC(=O)c1c[nH]cc1C
5,0.64,O=Cc1ccc[nH]1
6,1.69,O=Cc1c[nH]c2ccccc12

# Continued, compound first:
row,SMILES,logP
1,O=C(O)c1c[nH]c2ccccc12,1.99
2,N#Cc1ccc[nH]1,1.13
3,CC(=O)Nc1ccc2[nH]c(C)cc2c1,1.22
